# Measured values from patent publication US20060148683A1, “Detection and treatment of intravascular lesions” (priority 2001, published 2006).
# Positions of bridges follow the written chain, without caps; N, C: chain ends. Non-standard residues stand in square brackets, D forms with d. Residues, ends and D or L forms follow the SMILES beside them. ξ: configuration not given here. *: point of attachment. X1 = CN(C)c1ccc2c(-c3cc(C(=O)*)ccc3C(=O)[O-])c3ccc(=[N+](C)C)cc-3oc2c1; Ile(3ξ) = CCC(C)[C@H](N)C(=O)O; Ahx = NCCCCCC(=O)O
# Legend:
# Type in all cases: binding
# [1] = target: T1, fibrin (Homo sapiens, UniProt P02671+P02675+P02679); assay: Confocal fluorescence imaging of fibrin-optical agent complex on lesion formed by cross-linking fibrinogen with thrombin; conditions: 0.6 μM optical agent, 0.1 mg/mL fibrinogen, confocal fluorescence imaging ex 555 nm, em 575 nm
# T1 sequence (P02671 36-629 limits assumed): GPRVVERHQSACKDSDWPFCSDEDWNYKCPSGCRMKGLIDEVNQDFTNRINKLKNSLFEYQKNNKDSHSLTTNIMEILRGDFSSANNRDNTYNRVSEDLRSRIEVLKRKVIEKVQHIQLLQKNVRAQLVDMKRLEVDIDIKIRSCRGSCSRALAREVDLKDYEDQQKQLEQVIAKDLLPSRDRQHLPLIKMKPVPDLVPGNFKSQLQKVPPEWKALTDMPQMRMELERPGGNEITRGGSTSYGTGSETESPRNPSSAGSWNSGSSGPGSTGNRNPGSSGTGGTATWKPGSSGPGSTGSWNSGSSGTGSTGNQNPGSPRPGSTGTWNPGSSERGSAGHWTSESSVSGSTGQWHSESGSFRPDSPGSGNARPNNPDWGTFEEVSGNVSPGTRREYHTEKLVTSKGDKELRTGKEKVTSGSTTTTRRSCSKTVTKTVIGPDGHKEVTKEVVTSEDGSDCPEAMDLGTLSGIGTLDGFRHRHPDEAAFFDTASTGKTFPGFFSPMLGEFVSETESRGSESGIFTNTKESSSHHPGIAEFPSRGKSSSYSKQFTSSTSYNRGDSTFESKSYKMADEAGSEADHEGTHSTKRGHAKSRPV
# T1 sequence (P02675 45-491 limits assumed): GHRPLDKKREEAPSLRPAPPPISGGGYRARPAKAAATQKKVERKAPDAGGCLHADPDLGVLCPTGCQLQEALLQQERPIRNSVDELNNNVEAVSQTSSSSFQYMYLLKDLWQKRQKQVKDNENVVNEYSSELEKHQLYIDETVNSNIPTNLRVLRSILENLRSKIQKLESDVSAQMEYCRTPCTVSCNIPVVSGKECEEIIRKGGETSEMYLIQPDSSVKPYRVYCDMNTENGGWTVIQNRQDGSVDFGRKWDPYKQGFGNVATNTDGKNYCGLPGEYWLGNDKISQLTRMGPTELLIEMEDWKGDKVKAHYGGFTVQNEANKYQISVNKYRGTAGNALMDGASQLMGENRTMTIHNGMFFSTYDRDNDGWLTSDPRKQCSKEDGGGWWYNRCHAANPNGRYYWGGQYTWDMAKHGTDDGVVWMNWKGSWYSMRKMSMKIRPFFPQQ
# T1 sequence (P02679 27-437 isoform P02679-2 limits assumed): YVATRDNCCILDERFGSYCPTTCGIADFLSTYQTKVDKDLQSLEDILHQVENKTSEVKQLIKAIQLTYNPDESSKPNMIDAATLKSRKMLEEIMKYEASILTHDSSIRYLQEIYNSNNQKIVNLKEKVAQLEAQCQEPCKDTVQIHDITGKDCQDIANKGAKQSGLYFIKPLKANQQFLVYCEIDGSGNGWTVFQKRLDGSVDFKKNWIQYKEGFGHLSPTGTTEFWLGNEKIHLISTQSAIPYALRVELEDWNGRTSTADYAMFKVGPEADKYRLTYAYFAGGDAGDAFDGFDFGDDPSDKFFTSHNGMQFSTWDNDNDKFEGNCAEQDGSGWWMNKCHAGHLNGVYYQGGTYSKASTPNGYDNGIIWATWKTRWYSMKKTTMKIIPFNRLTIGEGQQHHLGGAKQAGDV
# Procedure: Site 2/fibrin: 0.1 mg/mL of fibrinogen was mixed with 0.6 μM of an optical agent (Structure XI, see FIG. 3) comprising tetramethylrhodamine as the optical dye. The mixture was coated (approximately 4-20 μL) onto a glass slide and cross-linking of fibrinogen was initiated with 1.3 μg/L of thrombin. Clotting occurred in approximately 15 sec. The slide was imaged using confocal fluorescence imaging (ex 555 nm, em 575 nm).
# Site 1/fibrin: 0.1 mg/mL of fibrinogen was mixed with 0.6 μM of an optical agent (Structure X) comprising tetramethylrhodamine as the optical dye. The mixture was coated (approximately 4-20 μL) onto a glass slide and cross-linking of fibrinogen was initiated with 1.3 μg/L of thrombin. Clotting occurred in about 15-20 seconds. The slide was imaged using confocal fluorescence imaging (ex 555 nm, em 575 nm).
# [2] = target: T2, fibrin on a lesion (plasma clot) (Homo sapiens, UniProt P02671+P02675+P02679); assay: Confocal fluorescence imaging of fibrin-optical agent complex on plasma clot formed by clotting human plasma with thrombin; conditions: 0.6 μM optical agent, platelet rich human plasma, confocal fluorescence imaging ex 555 nm, em 575 nm
# T2 construct: from tissue; host or cells: platelet rich human plasma
# T2 sequence (P02671 36-629 limits assumed): T1 sequence (P02671 36-629 limits assumed)
# T2 sequence (P02675 45-491 limits assumed): T1 sequence (P02675 45-491 limits assumed)
# T2 sequence (P02679 27-437 isoform P02679-2 limits assumed): T1 sequence (P02679 27-437 isoform P02679-2 limits assumed)
# Procedure: Site 2/plasma clot: human plasma (platelet rich human plasma) was mixed with 0.6 μM of an optical agent (Structure XI, see FIG. 3) comprising tetramethylrhodamine as the optical dye. The mixture was coated onto a glass slide (approximately 4-20 μL) and clotting of plasma was initiated with 1.3 μg/L of thrombin. Clotting occurred within 15 sec. The slide was imaged using confocal fluorescence imaging (ex 555 nm, em 575 nm).
# [3] = target: T3, DD(E) fragment of fibrin (Homo sapiens, UniProt P02671+P02675+P02679, DEL433-453); assay: Dissociation constant (Kd) of optical agent for DD(E) fragment of fibrin; conditions: 24° C.; read-out: Kd (μM) vs. DD(E) @ 24° C.
# T3 construct: complex of the crosslinked D domains of adjacent fibrin monomers with the central E domain of fibrin
# Source text: Optical agents of the invention include an OD and a FBM covalently bound to each other, either directly or via a linker (OD-L-FBM). The FBM can be a small molecule or a peptide. As used herein, the term “peptide” refers to a chain of amino acids that is about 2 to about 75 amino acids in length (e.g., 3 to 50 amino acids). Affinity of a peptide for fibrin can be expressed in terms of its dissociation constant (Kd), which is the equilibrium constant for the dissociation reaction of the peptide from the DD(E) fragment of fibrin. The term “DD(E) fragment of fibrin” refers to a fibrin subcomponent generated by proteolytic degradation of fibrin with plasmin or trypsin. The DD(E) fragment is a complex of the crosslinked D domains of adjacent fibrin monomers with the central E domain of fibrin (See, for example, Spraggon et al., Nature 389:455462 (1997)). Since DD(E) is a product resulting from the proteolysis of fibrin, one of skill in the art will understand that there may be some slight heterogeneity in its composition. The DD(E) fragment can be biotinylated and immobilized via avidin to a solid substrate (e.g., a multi-well plate). Peptides can be incubated with the immobilized DD(E) fragment in a suitable buffer and binding detected using known methodology. Methods for determining the dissociation constant of the peptide for DD(E) are set forth in WO 01/09188.
# As a result of the FBM having affinity for fibrin, the optical agent also has affinity for fibrin. The term “affinity” refers to the capacity of the optical agent to be taken up by, retained by, or bound to the fibrin in the lesion. The affinity of an optical agent can be expressed in terms of its Kd, which is the equilibrium constant for the dissociation reaction of the optical agent from fibrin, and determined as discussed above for the peptide. The dissociation constant of the optical agent for DD(E) can have a value less than about 10 μM (e.g., 0.1 μM to 10 μM). In one embodiment, the dissociation constant value is less than about 5 μM. In another embodiment, the dissociation constant value is less than about 1 μM. The dissociation constant also may have a value less than about 0.3 μM (e.g., 0.2 μM).
# In the methods of the present invention, the optical agent forms a fibrin-optical agent complex at the site of the lesion. The ability of the optical agent to form a fibrin-optical agent complex may be measured by examining the optical agent's dissociation constant (Kd) for a DD(E) fragment of fibrin as discussed above.
smiles,measurement,setting,value
CCC(C)[C@H](NC(=O)[C@H](Cc1c[nH]c2ccccc12)NC(=O)[C@@H]1CSSC[C@H](NC(=O)[C@H](CCC(=O)O)NC(=O)[C@H](Cc2c[nH]c3ccccc23)NC(=O)[C@H](CCC(N)=O)NC(=O)CCCCCNC(=O)c2ccc(C(=O)[O-])c(-c3c4ccc(=[N+](C)C)cc-4oc4cc(N(C)C)ccc34)c2)C(=O)N2CCC[C@H]2C(=O)N[C@@H](Cc2ccc(O)cc2)C(=O)NCC(=O)N[C@@H](CC(C)C)C(=O)N1)C(=O)N[C@@H](CCC(N)=O)C(N)=O (stereo partly drawn) [Structure XI] ({X1-Ahx}-QWECPYGLCW[Ile(3ξ)]Q-NH2; disulfide 4-9),Detection of fibrin based on signal of fibrin-optical agent complexes,[1],Fibrin was detected
same,Detection of fibrin based on signal of fibrin-optical agent complexes,[2],Fibrin was detected
same,Kd,[3],0.09 µM
